We go through two compounds from patent US20240415834A1, “LURBINECTEDIN AND ATEZOLIZUMAB COMBINATIONS” (priority 2021, published 2024).

Where two headings read alike, the source gives them in different places.

The test system of one series is MX-1 breast xenograft. As to the kind of experiment: In vivo antitumour activity in xenografts. The conditions noted are these: Breast MX-1; Q7d × 3; 0.18 mg/kg/day (0.54 mg/m^2/day); optimal day D-21. Also noted: species or system athymic mice.
A short description of series [1]: Toxicity studies: HR and ECGs of dogs after single or repeated administration. Particulars: doses up to 0.05 mg/kg (1 mg/m^2). It counts as in vivo.
For series [2] the following is noted: dog, in vivo.
For series [3], the system named is patients with advanced and refractory solid tumours. Set-up: species or system human. Particulars: in vivo. The protocol:
The completed PM1183-A-001-08 phase I trial evaluated i.v. lurbinectedin in human patients for the first time, when infused over one hour (h) every three weeks (q3 wk) in 31 patients with advanced and refractory solid tumours. Among these, 15 (48.4%) patients were treated at the defined recommended dose (RD). The RD for phase II studies was defined at a PM01183 dose of 4.0 mg/m^2 q3 wk-equivalent to a 7.0 mg flat dose (FD) q3 wk. […] No signs of cumulative toxicity were observed.

Series [4] in a line: PM1183-A-008-13 phase I study, interaction with aprepitant. The conditions noted are these: in the presence of aprepitant (CYP3A4 inhibitor), patients. The format is in vivo, human. The source says: PM01183 clearance was reduced by 50%, approximately, in the presence of aprepitant. Although all patients eventually recovered, the use of aprepitant is currently forbidden in all PM01183 studies.

Series [5] in a line: Cardiovascular parameters (ABP, HR, lead II ECG) after single bolus injection in dogs. The format is in vivo. The conditions noted are these: six hours, doses up to 0.01 mg/kg (0.2 mg/m^2).
The conditions of series [6]: rat, in vivo.
Series [7] deals with Capan-1 pancreas xenograft. The series can be described thus: In vivo antitumour activity in xenografts. Set-up: species or system athymic mice. The conditions noted are these: Pancreas Capan-1; Q7d × 3; 0.18 mg/kg/day (0.54 mg/m^2/day); optimal day D-61.
The test system of a further series is CYP isoforms. The series can be described thus: In vitro metabolism studies with human microsomes. Particulars: followed by CYP2E1, CYP2D6 and CYP2C9. The format is in vitro ADME. An excerpt: The estimated contribution of the other CYP isoenzymes to the PM01183 metabolism is considered to be negligible. Therefore, concomitant drugs which induce or inhibit any of these cytochromes, especially CYP3A4, should be carefully monitored or avoided, whenever is possible.

The subject of series [8] is broad selection of tumour-derived cell lines. The series can be described thus: In vitro cytotoxic effects against tumour-derived cell lines. It counts as cell-based. Particulars: read-out: median IC50.
The test system of another series is PANC-1. The series can be described thus: MTT short-term viability assay, 72 hours exposure. It counts as cell-based. The conditions noted are these: Homo sapiens, Pancreas, read-out: IG50 (the source's name). Here is the method: (§1) The antineoplastic in vitro activity of lurbinectedin was evaluated in a panel of solid tumour cell lines (some of which are shown in Table 1), which were exposed to a range of lurbinectedin concentrations for 72 hours and then assayed for viability by a MTT short-term assay.

For another series, the system named is BT-474. The series can be described thus: MTT short-term viability assay, 72 hours exposure. It counts as cell-based. Particulars: Homo sapiens, Breast, read-out: IG50 (the source's name). The protocol: as §1
In a further series the test system is HT-29. As to the kind of experiment: MTT short-term viability assay, 72 hours exposure. It counts as cell-based. The conditions noted are these: Homo sapiens, Colon, read-out: IG50 (the source's name). The protocol:
as §1

The test system of a further series is A-549. The series can be described thus: MTT short-term viability assay, 72 hours exposure. Particulars: Homo sapiens, A549, Lung, read-out: IG50 (the source's name). The format is cell-based. Here is the method: as §1
Another series has as its system A2780. The series can be described thus: MTT short-term viability assay, 72 hours exposure. The format is cell-based. The conditions noted are these: Homo sapiens, Ovarian, read-out: IG50 (the source's name). The protocol:
as §1

The next series relates to NCl-H23. As to the kind of experiment: MTT short-term viability assay, 72 hours exposure. Particulars: Lung, read-out: IG50 (the source's name). It counts as cell-based. The protocol:
as §1

The next series has as its system NCl-H460. As to the kind of experiment: MTT short-term viability assay, 72 hours exposure. The format is cell-based. The conditions noted are these: Lung, read-out: IG50 (the source's name). Here is the method: as §1
For a further series, the system named is IGROV-1. As to the kind of experiment: MTT short-term viability assay, 72 hours exposure. The format is cell-based. Particulars: Homo sapiens, Ovarian, read-out: IG50 (the source's name). Here is the method: as §1
The next series concerns MDA-MB-231. The series can be described thus: MTT short-term viability assay, 72 hours exposure. Particulars: Homo sapiens, Breast, read-out: IG50 (the source's name). The format is cell-based. Here is the method:
as §1

For the next series, the system named is MCF-7. The series can be described thus: MTT short-term viability assay, 72 hours exposure. It counts as cell-based. The conditions noted are these: Homo sapiens, MCF7, Breast, read-out: IG50 (the source's name). The protocol:
as §1

The test system of a further series is HCT 116. The series can be described thus: MTT short-term viability assay, 72 hours exposure. It counts as cell-based. The conditions noted are these: Homo sapiens, Colon, read-out: IG50 (the source's name). The protocol:
as §1

For a further series, the system named is LoVo. As to the kind of experiment: MTT short-term viability assay, 72 hours exposure. The format is cell-based. Particulars: Homo sapiens, Colon, read-out: IG50 (the source's name). Here is the method:
as §1

The next series has as its system MiaPaca-2. The series can be described thus: MTT short-term viability assay, 72 hours exposure. It counts as cell-based. Particulars: Homo sapiens, MIA PaCa-2, Pancreas, read-out: IG50 (the source's name). Here is the method:
as §1

Series [9] in a line: Pooled logistic regression analysis of phase II data, review of recommended dose. The format is in vivo, human. Particulars: q3 wk, BSA-based dosing, to limit severe myelosuppression. The protocol:
Owing to these findings, all actively recruiting and planned studies now use BSA-based dosing to limit severe myelosuppression. The original RD of 4.0 mg/m^2 q3 wk has been reviewed and reduced to 3.2 mg/m^2 q3 wk for the same reason.

For another series, the system named is PC-3 prostate xenograft. As to the kind of experiment: In vivo antitumour activity in xenografts. The conditions noted are these: Prostate PC-3; Q7d × 3; 0.18 mg/kg/day (0.54 mg/m^2/day); optimal day D-27. Set-up: species or system athymic mice.
The next series deals with LXFL 529 lung xenograft. As to the kind of experiment: In vivo antitumour activity in xenografts. Particulars: Lung LXFL 529; Q7d × 3; 0.18 mg/kg/day (0.54 mg/m^2/day); optimal day D-28. Also noted: species or system athymic mice.
The subject of series [10] is UM-UC-3 bladder xenograft. The series can be described thus: In vivo antitumour activity in xenografts. Also noted: species or system athymic mice. Particulars: Bladder UM-UC-3; Qd × 5 × 2; 0.06 mg/kg/day (0.18 mg/m^2/day); optimal day D-23.
The subject of series [11] is MDA-MB-231 breast xenograft. The series can be described thus: In vivo antitumour activity in xenografts. Also noted: species or system athymic mice. The conditions noted are these: Breast MDA-MB-231; Q7d × 3; 0.18 mg/kg/day (0.54 mg/m^2/day); optimal day D-34.
The subject of a further series is A2780 ovary xenograft. The series can be described thus: In vivo antitumour activity in xenografts. Also noted: species or system athymic mice. Particulars: Q7d × 3, 0.18 mg/kg/day (0.54 mg/m^2/day), optimal day D-17.
Series [12] relates to patients with metastatic SCLC. The conditions noted are these: cited from earlier work.
The subject of series [13] is human-derived tumour xenografts. The series can be described thus: Tumour susceptibility in xenografts of human-derived tumour types. It counts as in vivo, athymic mice. Particulars: single bolus i.v. at rodent MTD 0.3 mg/kg. In general terms: Xenograft models place foreign cells or tissue in a host animal.
A short description of another series: in vivo. The conditions noted are these: rodent, iv.
The test system of a further series is patients with ES-SCLC. The conditions noted are these: IMpower133; cited from earlier work.

Consider `COc1ccc2[nH]c3c(c2c1)CCN[C@]31CS[C@@H]2c3c(OC(C)=O)c(C)c4c(c3[C@H](COC1=O)N1[C@@H]2[C@H]2c3c(cc(C)c(OC)c3O)C[C@@H]([C@@H]1O)N2C)OCO4` [PM01183, lurbinectedin], for which the T/C % amounted to 0% in the series with MX-1 breast xenograft; 61% in series [7]; 65% in the series with PC-3 prostate xenograft; 5% in the series with LXFL 529 lung xenograft; 58% in series [10]; 40% in series [11]. Besides, in the series on A2780 ovary xenograft, the T/C % is reported as 34%. Besides, in [1], the “electrophysiological alterations in HR and ECGs” value is recorded as “no electrophysiological alterations”. The “main target organs of toxicity” value in series [2] was “bone marrow and the liver”; in series [6] it was “bone marrow and the liver”. Also, the “dose-limiting toxicity (DLT) at the RD” value in series [3] (human) is “grade 4 thrombocytopenia”. For the same compound, the “inter-patient variability in the area under the curve [AUC]” value in [3] (human) is given as over 50.0%. Further, the “recommended dose, equivalent flat dose (FD)” value in series [3] (human) was found to be 7.0 mg. The “recommended dose (RD) for phase II studies” value in [3] (human, iv) was determined as 4.0 mg/m^2. For the same compound, the PK dose linearity entry in series [3] is reported as “linearity across all explored doses”. The “tolerability at the RD” value in series [3] is reported as “generally well tolerated”. For the same compound, the clearance reduction in series [4] was about 50%. Moreover, the “effects on heart, ABP, lead II ECG variables (PR, QT, QTcF, QTcV, QRS), ECG gross morphology or rhythm” value in series [5] is given as “no effects”. In addition, the “major CYP isoform involved in the metabolism” value in the series on CYP isoforms is reported as “CYP3A4”. The IC50 is about 0.1 nM in [8]; 2.9 nM in the series on PANC-1; 1.3 nM in the series with BT-474; 2.4 nM in the series on HT-29; 1.3 nM in the series on A-549; 1.6 nM with A2780. Moreover, the IC50 with NCl-H23 stood at 0.54 nM; in the series on NCl-H460 it was 1.6 nM; with IGROV-1, 9.8 nM; in the series on MDA-MB-231 it was 3.5 nM; in the series on MCF-7, 1.7 nM; with HCT 116 it was 65 nM. Also, the IC50 in the series on LoVo was 2 nM; with MiaPaca-2, 1.1 nM. Moreover, the “recommended dose, reviewed and reduced” value in series [9] was 3.2 mg/m^2. The median response duration was 5.1 months in [12] (independent review committee, 95% CI 4.9, 6.4) and 5.3 months in [12] (investigator assessment, 95% CI 4.1, 6.4). Also, the ORR is recorded as 30% in series [12] (independent review committee, 95% CI 22%, 40%) and 35% in series [12] (investigator assessment RECIST 1.1, 105 patients, 3.2 mg/m^2 i.v. every 21 days, 95% CI 26%, 45%). Besides, the “antitumour activity against bladder, pancreas and prostate xenografts” value in series [13] is listed as “more moderate antitumour profile”. Moreover, the “antitumour activity against breast, lung and ovarian xenografts” value in [13] (different time points) is recorded as “statistically significant antitumour activity (p<0.05)”. In the series “in vivo”, this compound came in with an MTD of 0.3 mg/kg.
Regarding “atezolizumab: humanized IgG1 monoclonal antibody that targets human PD-L1”, the “most common adverse reaction reported in ≥20% of patients” value in the series on patients with ES-SCLC was “fatigue/asthenia, nausea, alopecia, constipation and decreased appetite”.
